The test system of test [1] is rats with middle cerebral artery occlusion (MCAO). Description: Acute cerebral infarction model in rats with middle cerebral artery occlusion (MCAO). To be noted: for ED50: Rattus norvegicus, ip, 72 h, intraperitoneal injection, TTC staining after 3 days, read-out: ED50 for infarction inhibition rate (%); for Longa nerve scoring, protective effect on nerves (in words): FIG. 5. Format: in vivo, male SD rats. The text has this: After obtaining the active molecules that can promote the expression of VEGF-A mRNA in the animal model of inflammatory angiogenesis, a rat model of cerebral infarction was used for further verification. Following the method as described in Longa, E. Z., Longa, E. Z., Weinstein, P. R., Carlson, S. & Commin, R. Reversible middle cerebral artery occlusion without craniectomy in rats. [J]. Stroke, 1989. 1: 84-91, an acute cerebral infarction model was established in rats with middle cerebral artery occlusion (MCAO); and following the method as described in C. dela Torre, T. Fortin, G. A. S. Park, K. S. Butler, P. Kozlowski, B. A. Pappas, H. de Socarraz, J. K. Saunders and M. T. Richard. [J]. Brain Research, 1992. 582:186-195, a chronic cerebral ischemia model was established in rats with permanent ligation of bilateral common carotid arteries (2VO). The inhibition on cerebral infarction and neuroprotection for brain injury of the active molecules screened in Effect Example 2 were verified.
The control drugs were: Edaravone (purchased from Zhejiang Shengtong Biotechnology Co., Ltd.), Clopidogrel bisulfate (purchased from Wuhan Yuancheng Gongchuang Technology Co., Ltd.), and Salvianolate (purchased from Henan Provincial People's Hospital). Clopidogrel bisulfate is a platelet aggregation inhibitor, and Edaravone is a brain protectant (free radical scavenger). The MCAO model of rats was made by the thread occlusion method. The rats used in this effect example were male SD rats weighing 280-320 grams, purchased from Shanghai SLAC Laboratory Animal Co., Ltd. Five SD (Sprague Dawley) rats in each group were administered by intraperitoneal injection, 2 h before surgery, and every 24 h after modeling.
Three days later, the brain was taken, and the rat brain was stained with TTC (2,3,5-triphenyltetrazolium chloride, to detect the cell viability) and then photographed. Infarction rate (%)=(Non-infarction area of right brain section−non-infarction area of left brain section)/total area of brain section*100%. According to t tests, *P<0.05, **P<0.01, ***P<0.001 compared with the model group (MCAO). Infarction inhibition rate (%) at different doses=(infarction rate of model group-infarction rate of treatment group)/infarction rate of model group*100%. The infarction inhibition rate at different doses was plotted, and the ED50 of the drug was calculated.
Moreover, the body weight of the rats was recorded. The rate of body weight change was calculated according to a formula: Rate of body weight change (%)=(final weight-initial weight)/[…].
Three days after the acute cerebral infarction model was established in rats with MCAO, the test rats were scored for neurological function according to the Longa nerve scoring standard.
Three days after the acute cerebral infarction model of MCAO was established in rats, the intact brain tissue was taken out, olfactory bulb and the brain tissue that is 4 mm in front of the frontal pole was removed, and the immediately adjacent brain tissue of 2 mm thick was taken for water content measurement in the brain. The water content in brain tissue is calculated by the formula: (WW−DW)/WW×100%, where WW is the wet weight and DW is the dry weight. Three days after the acute cerebral infarction model of MCAO was established in rats, the brain tissue was stained with Evans Blue (EB, a commonly used azo dye preparation) to evaluate the permeability across the blood-brain barrier (BBB), so as to evaluate the integrity of blood-brain barrier. Both experiments were tested with the optimal dose of each drug previously determined: TG-028 (5 mg/Kg), Salvianolate (20 mg/Kg), Clopidogrel bisulfate (40 mg/Kg), Edaravone (40 mg/Kg).

Test [2] relates to VEGF-A mRNA. Description: Sponge implanted animal model of inflammatory angiogenesis: VEGF-A mRNA expression. Format: in vivo, male C57/BL6 mice. To be noted: 2 weeks; for activity in promoting VEGF-A mRNA expression compared with Salvianolate (in words): positive control Salvianolate 60 mg/kg/d, sponge implanted mice. The text has this:
The target pro-angiogenic compounds TG-052, TG-053, TG-054, TG-028, and TG-055 obtained in Effect Example 1 that perform well at the cellular level were further screened for the active molecules that promote VEGF-A mRNA expression in the “sponge implanted animal model” of inflammatory angiogenesis. […] This model can well reflect the expression of VEGF-A mRNA in macrophages recruited around inflammation.
A sponge implanted mouse model was established following the method as described in Zhang J, Modi Y, and Yarovinsky T, et al. Macrophage β2 integrin-mediated, HuR-dependent stabilization of angiogenic factor-encoding mRNAs in inflammatory angiogenesis. [J]. American Journal of Pathology, 2012. 180(4): 1751-1760. The mice used in the present invention was male C57/BL6 mice aged 6-8 weeks and weighing 20-25 g, purchased from Shanghai SLAC Laboratory Animal Co., Ltd, Production License No: SCXK (Shanghai) 2013-0016. The compound screened in Effect Example 1 was weighed according to the amount intended to be used in two weeks, and then mixed with a gel matrix and a solvent to prepare a sustained-release gel of the compound (see Patent Application No.: CN201610168493.9 for the details of the preparation method of the sustained-release gel and the model establishment and detection methods). The specific steps were as follows. A certain amount of the compound obtained in Effect Example 1 was weighed into a 1.5 mL EP tube, and then a certain amount of poly-L-lactic acid (PLLA) with a weight average molecular weight of less than 10,000 was weighed and mixed with the compound (at a weight ratio of the compound to PLLA of 0.5:1 to 2:1). Finally a certain amount of DMSO (less than 100 microliters) was added, spun, mixed well, and then sealed with a sealing film. After continuous ultrasonication at 200 W and 25° C. for 5 h, a sustained-release gel of the compound was obtained, which was stored at 4° C. for later use.
The prepared sustained-release gel can release the drug completely within 2 weeks. The sustained-release gel and sponge were both subcutaneously implanted in the mice at the back. After 2 weeks, the sponge was taken out, and the residual tissue and fur were removed. The sponge was transferred to a cell culture plate containing 10 mL of DMEM medium containing collagenase (Collagenase:DMEM=10 mg/10 mL), cut, and incubated for 1 h in a cell incubator. Then the culture medium containing sponge debris was filtered, and the resulting filtrate was centrifuged. The supernatant was discarded, and 500 μL of Trizol reagent was added to the pellet, and mixed uniformly by blowing. Then the liquid was transferred to a 1.5 mL EP tube, and stored at −80° C. RNA was extracted according to a conventional method, and the RNA concentration was determined using a microvolume nucleic acid and protein analyzer (Nanodrop2000c). The required volume V of RNA was calculated according to the RNA concentration, and the RNA reverse transcription reaction system was prepared according to Table 1. Then RNA reverse transcription (cDNA synthesis) was carried out according to the conditions described in Table 2. The resulting cDNA was used to prepare a fluorescence quantitative qPCR reaction solution according to Table 3. The fluorescence quantitative qPCR reaction conditions were set according to Table 4, and the fluorescence quantitative PCR reaction was performed using cDNA from the reverse transcription reaction as a template. The relative expression level 2^−ΔΔCt of the target gene was calculated from the Ct value of each sample with the blank group as a control and β-Actin as an internal reference. The expression level of VEGF-A mRNA in the cells extracted from the sponge was observed after 2 weeks. […]

Broadly, the ED50 is the midpoint of the dose-response relation.

Structures are written as SMILES.

For `COc1ccc(CCCCO[C@@H]2O[C@H](CO)[C@@H](O)[C@H](O)[C@H]2O)cc1` [TG-028], the “effect on inhibiting cerebral infarction (in words)” value in test [1] (MCAO, compared with the control drugs) is recorded as “most potent effect on inhibiting cerebral infarction in rats”. Moreover, in test [1] (MCAO), the ED50 was determined as 2.61 mg/kg. The “water content in brain, effect on reducing cerebral edema (in words)” value in test [1] (TG-028 5 mg/Kg, three days after MCAO, FIG. 6A) was “better effect on reducing cerebral edema after acute brain injury of MCAO in rats than Edaravone, Clopidogrel bisulfate, and Salvianolate”. Also, in test [1] (TG-028 5 mg/Kg, three days after MCAO, FIG. 6B), the “integrity of blood-brain barrier, Evans Blue (in words)” value was “better protective effect on blood-brain barrier after acute brain injury of MCAO in rats than Edaravone and Salvianolate”. Besides, the “Longa nerve scoring, protective effect on nerves (in words)” value in test [1] (three days after MCAO) is “equivalent to that of Edaravone, Clopidogrel bisulfate, and Salvianolate”. In addition, the “rate of body weight change, protection (in words)” value in test [1] (three days after brain injury, FIG. 3) is “significant protection for rats in terms of the body weight after brain injury”. Further, the “VEGF-A mRNA expression level relative to blank control without drugs” value in test [2] (11.74 mg/kg/d, sustained-release gel, mice) is given as “more than 6 times”; in test [2] (23.48 mg/kg/d, sustained-release gel, mice) it was “more than 6 times”. Also, the “activity in promoting VEGF-A mRNA expression compared with Salvianolate (in words)” value in test [2] is listed as “significantly higher than that of Salvianolate”.
On to `OC[C@H]1O[C@@H](OCCc2ccccc2)[C@H](O)[C@@H](O)[C@@H]1O` [TG-055], for which the ED50 in test [1] (MCAO) amounted to 65.3 mg/kg. Also, the “Longa nerve scoring, protective effect on nerves (in words)” value in test [1] (three days after MCAO) is “equivalent to that of Edaravone, Clopidogrel bisulfate, and Salvianolate”. Besides, in test [2] (19.48 mg/kg/d, sustained-release gel, mice), the “increase of expression level of VEGF-A mRNA compared with blank control without drugs” value is on record as “about 3 times”. In addition, the “activity in promoting VEGF-A mRNA expression compared with Salvianolate (in words)” value in test [2] is reported as “comparable to that of Salvianolate”.

The record behind these values is patent publication US11325937B2, “Glycoside compound and preparation method therefor, composition, application, and intermediate” (SHANGHAI HUTCHISON PHARMACEUTICALS LIMITED, priority 2018, dated 2022).
